Results: the NIST ThermoML archive (doi:10.1016/j.jct.2017.01.001)
Numbers after ± are expanded uncertainties.

Experiment: wn = mass fraction of the nth substance listed
Conditions: 100 kPa, Liquid, Pycnometric method

mass density (323.15 K, w1 = 0.323)	mass density (343.15 K, w1 = 0.3141)	mass density (363.15 K, w1 = 0.3071)	mass density (323.15 K, w1 = 0.5495)	mass density (343.15 K, w1 = 0.5753)	mass density (363.15 K, w1 = 0.5961)	Compound
1323.5 ± 20 kg/m3	1310.2 ± 20 kg/m3	1268.7 ± 20 kg/m3	–	–	–	O=C([O-])[O-].[Na+].[Na+] [sodium carbonate] + O
–	–	–	1583.2 ± 20 kg/m3	1594.3 ± 20 kg/m3	1626.5 ± 20 kg/m3	O=C([O-])[O-].[K+].[K+] [potassium carbonate] + O
